Source: patent US20250215029A1 (Recludix Pharma, Inc., priority 2022, published 2025)

Molecular target: T1, pY641-STAT6 in PBMC (Homo sapiens, UniProt P42226)
T1 construct: Cryopreserved Peripheral Blood Mononuclear Cells (PBMC) are from AllCells; host or cells: cryopreserved PBMC
T1 sequence (P42226 1-847): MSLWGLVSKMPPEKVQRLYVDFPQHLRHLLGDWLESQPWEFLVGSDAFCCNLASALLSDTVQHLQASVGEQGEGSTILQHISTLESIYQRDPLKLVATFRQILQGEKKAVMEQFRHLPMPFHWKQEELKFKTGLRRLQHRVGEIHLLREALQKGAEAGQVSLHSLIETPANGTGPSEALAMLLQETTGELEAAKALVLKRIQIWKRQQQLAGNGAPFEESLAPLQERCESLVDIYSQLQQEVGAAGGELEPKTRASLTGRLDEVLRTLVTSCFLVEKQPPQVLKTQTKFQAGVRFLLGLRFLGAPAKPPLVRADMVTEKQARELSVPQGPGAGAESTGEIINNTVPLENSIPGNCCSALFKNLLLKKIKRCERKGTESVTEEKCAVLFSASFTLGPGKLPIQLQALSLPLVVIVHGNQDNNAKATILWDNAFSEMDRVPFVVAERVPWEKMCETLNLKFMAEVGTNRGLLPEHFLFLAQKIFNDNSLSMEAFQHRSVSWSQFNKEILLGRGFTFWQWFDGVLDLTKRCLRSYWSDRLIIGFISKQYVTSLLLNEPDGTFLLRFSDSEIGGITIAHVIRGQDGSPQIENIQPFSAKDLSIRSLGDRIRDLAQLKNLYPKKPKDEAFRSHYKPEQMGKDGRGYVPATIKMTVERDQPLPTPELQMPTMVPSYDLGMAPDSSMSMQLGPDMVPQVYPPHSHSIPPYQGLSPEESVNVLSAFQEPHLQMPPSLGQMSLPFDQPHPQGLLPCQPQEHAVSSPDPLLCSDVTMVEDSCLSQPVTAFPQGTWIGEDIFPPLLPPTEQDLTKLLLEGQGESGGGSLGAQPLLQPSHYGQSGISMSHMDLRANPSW
Test: MSD-pSTAT-PBMC Assay (pSTAT6, IL-4 stimulated)
Format: cell-based
Conditions: STAT6, PBMC, compound 3 hrs, then 1 ng/mL IL-4 for 10 min; Table 115
Method in brief: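 MSD electrochemiluminescence read-out: total STAT captured, probed with anti-pY641-STAT6 or anti-pY705-STAT3. Human PBMC, 3 h compound pretreatment, 10 min stimulation (IL-4 1 ng/mL or IL-6 10 ng/mL). Unstimulated signal subtracted, DMSO-normalized, variable-slope IC50.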

Q: How did the IC50 turn out when `CCCOC(=O)[C@H](C)NP(=O)(Oc1ccccc1)[C@@H](F)c1ccc2sc(C(=O)N[C@H]3CCCC[C@H]4CC[C@@H](C(=O)N5C(=O)N(c6cncc(C)c6)C(=O)C56CC6)N4C3=O)cc2c1` (stereo partly drawn) [Compound 303, propyl (((R)-fluoro(2-(((3S,6S,10aS)-3-(6-(5-methylpyridin-3-yl)-5,7-dioxo-4,6-diazaspiro [2.4]heptane-4-carbonyl)-5-oxodecahydropyrrolo [1,2-a]azocin-6-yl)carbamoyl)benzo [b]thiophen-5-yl)methyl)(phenoxy)phosphoryl)-L-alaninate] was run?
A: 100 to 1000 nM

Q: Which IC50 does the source give for `C[C@H](NP(=O)(Oc1ccccc1)[C@@H](F)c1ccc2sc(C(=O)N[C@H]3CCCC[C@H]4CC[C@@H](C(=O)N5C[C@@H](c6cccnc6)CC56CC6)N4C3=O)cc2c1)C(=O)OCc1ccccn1` (stereo partly drawn) [Compound 385, pyridin-2-ylmethyl (((R)-fluoro(2-(((3S,6S,10aS)-5-oxo-3-((R)-6-(pyridin-3-yl)-4-azaspiro[2.4]heptane-4-carbonyl)decahydropyrrolo[1,2-a]azocin-6-yl)carbamoyl)benzo [b]thiophen-5-yl)methyl)(phenoxy)phosphoryl)-L-alaninate] here?
A: < 100 nM

Q: For `CCCOC(=O)[C@H](C)NP(=O)(Oc1ccccc1)[C@@H](F)c1ccc2sc(C(=O)N[C@H]3CCC[C@H]4CC[C@@H](C(=O)N5C[C@H](c6cncc(Cl)c6)[C@@H](C#N)C56CC6)N4C3=O)cc2c1` (single isomer, unassigned) [Compound 367], which IC50 is on record?
A: 100 to 1000 nM

Q: `CCCOC(=O)[C@H](C)NP(=O)(Oc1ccccc1)C(F)c1ccc2sc(C(=O)N[C@H]3CCCC[C@H]4CC[C@@H](C(=O)N5C[C@H](c6cccnc6OC)[C@@H](C#N)C5)N4C3=O)cc2c1` (relative stereo) [Compound 322, propyl (((2-(((3S,6S,10aS)-3-((rel-trans)-3-cyano-4-(2-methoxypyridin-3-yl)pyrrolidine-1-carbonyl)-5-oxodecahydropyrrolo [1,2-a]azocin-6-yl)carbamoyl)benzo [b]thiophen-5-yl)fluoromethyl) (phenoxy)phosphoryl)-L-alaninate] was tested. Which IC50 did it give?
A: < 100 nM

Q: How did the IC50 turn out when `CCC(CC)COC(=O)[C@H](C)NP(=O)(Oc1ccccc1)[C@@H](F)c1ccc2sc(C(=O)N[C@H]3CCCC[C@H]4CC[C@@H](C(=O)N5C[C@@H](c6cccnc6)CC56CC6)N4C3=O)cc2c1` (stereo partly drawn) [Compound 471, 2-ethylbutyl (((R)-fluoro(2-(((3S,6S,10aS)-5-oxo-3-((R)-6-(pyridin-3-yl)-4-azaspiro[2.4]heptane-4-carbonyl)decahydropyrrolo[1,2-a]azocin-6-yl)carbamoyl)benzo [b]thiophen-5-yl)methyl)(phenoxy)phosphoryl)-L-alaninate] was run?
A: < 100 nM

Same assay, conditions: read-out: STAT6; PBMC, compound 3 hrs, then 1 ng/mL IL-4 for 10 min; Table 115

Q: `CCCOC(=O)[C@H](C)NP(=O)(Oc1ccccc1)[C@@H](F)c1ccc2sc(C(=O)N[C@H]3CCC[C@H]4CC[C@@H](C(=O)N5C[C@H](c6cccnc6)[C@@H](C#N)C56CC6)N4C3=O)cc2c1` (single isomer, unassigned) [Compound 363] was tested. Which IC50 did it give?
A: < 100 nM

Q: How did the IC50 turn out when `CCCOC(=O)[C@H](C)NP(=O)(Oc1ccccc1)[C@@H](F)c1ccc2sc(C(=O)N[C@H]3CCCC[C@H]4CC[C@@H](C(=O)N5C[C@H](c6cccc(C#N)c6)[C@@H](C#N)C56CC6)N4C3=O)cc2c1` (single isomer, unassigned) [Compound 340] was run?
A: < 100 nM

Q: `CCCOC(=O)[C@H](C)NP(=O)(Oc1ccccc1)[C@@H](F)c1ccc2sc(C(=O)N[C@H]3CCC[C@H]4CC[C@@H](C(=O)N5C[C@@H](c6cccc(C)c6)[C@H](C#N)C56CC6)N4C3=O)cc2c1` (single isomer, unassigned) [Compound 342] was tested. Which IC50 did it give?
A: < 100 nM
